Assay results published in US11732240B2, “Direct conversion method of somatic cell into Hepatic stem cell, hepatic cell, or cholangiocyte” (UNIST(ULSAN NATIONAL INSTITUTE OF SCIENCE AND TECHNOLOGY), priority 2016, dated 2023).

Assays:
[1] = test system: CYP related genes; test: qRT-PCR of CYP related genes in induced hepatocytes after drug treatment; assay type: cell-based, mouse; settings: iHep; 25 mM 3-Mc, 1 uM Dex or 50 mM ethanol; 72 hrs; versus DMSO control
Method: Total RNA was extracted and cDNA was synthesized in the same method as Example 1. qRT-PCR was performed using synthesized cDNA. mRNA expression of specific genes was confirmed using SYBR Green I Master (Roche, 04887352001) and primers in LightCycler® 480 equipment. The average value was calculated for three analyzes and normalized using Gapdh (5′-[…]-3′ (SEQ ID NO: 94) and 5′-[…]-3′ (SEQ ID NO: 95)). The expression level of mRNA was compared using comparative Ct method. Primer sequences used in qRT-PCR were shown below (sequences below were represented in the 5′ to 3′ direction).
The CYP family members were known to be regulated by aryl hydrocarbon receptor (AhR), constitutive androstane receptor (CAR), pregnane X receptor (PXR), and nuclear receptor which were abundantly found in liver tissue. In order to confirm whether hepatocytes induce CYP when a stimulus was given to such receptors, chemical compounds such as 3-methylcholanthrene (3Mc) which acts on aryl hydrocarbon receptors (Cyp1 family members) and glucocorticoid (Dex, dexamethasone) which acts on glucocorticoid receptors (glucocorticoid receptor regulating CAR and PXR is upstream of Cyp2/3 family members) were treated to receptors.
Specifically, cells were cultured with 60% confluency in HEP medium in which dexamethasone was not added. […]

[2] = test system: hepatocytes; settings: 50 mM EtOH for 48 hrs

accumulation of fats and droplets in cytoplasm of hepatocytes [2]	Compound	expression of CYP family genes (mRNA) [1]
	Cc1ccc2cc3c(ccc4ccccc43)c3c2c1CC3 [3-methylcholanthrene]	induced
accumulation of fats	CCO [ethanol]	
